Data published in patent publication US8822517B2, “Arylosulfonamides for the treatment of CNS diseases” (Adamed SP. Z O.O., priority 2010, dated 2014).

Legend:
[1] = target: T1, serotoninergic 5-HT2A receptor (Homo sapiens, UniProt P28223); test: Cellular functional assay, serotoninergic 5-HT2A receptor (agonism/antagonism); type: cell-based; conditions: for activation at 1 µM: read-out: 5-HT2A -ag [%]; for inhibition at 1 µM: read-out: 5-HT2A -antag [%]
In short: (§1)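 Human receptors tested in cell-based functional format for both agonist and antagonist modes. Single compound concentration of 1×10^−6M.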

dopaminergic D2 receptor [2] = target: T2, dopaminergic D2 receptor (Homo sapiens, UniProt P14416); test: Binding assay D2S (h), [3H]methyl-spiperone, HEK-293 cells; set-up: expressed in transfected cells; host or cells: HEK-293 cells; conditions: read-out: D2 [%]
In short: (§2)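 Radioligand displacement with compounds at 1×10^−6 M, detected by scintillation counting. Specific binding taken as total minus non-specific binding measured with excess unlabelled ligand.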
Target sequence in this assay (P14416 1-414 isoform P14416-2): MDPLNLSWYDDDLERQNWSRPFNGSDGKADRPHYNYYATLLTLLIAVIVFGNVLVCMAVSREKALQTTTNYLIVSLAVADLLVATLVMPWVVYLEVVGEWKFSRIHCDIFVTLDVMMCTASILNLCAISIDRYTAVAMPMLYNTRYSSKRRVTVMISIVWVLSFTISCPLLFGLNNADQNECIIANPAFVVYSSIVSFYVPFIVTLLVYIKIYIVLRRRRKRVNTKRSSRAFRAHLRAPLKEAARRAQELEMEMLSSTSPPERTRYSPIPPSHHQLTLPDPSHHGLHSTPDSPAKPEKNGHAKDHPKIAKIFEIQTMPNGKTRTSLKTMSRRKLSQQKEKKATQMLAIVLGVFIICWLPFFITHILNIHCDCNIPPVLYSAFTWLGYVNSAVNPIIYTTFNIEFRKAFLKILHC

muscarinic M3 receptor = target: T3, muscarinic M3 receptor (Homo sapiens, UniProt P20309); test: Binding assay M3 (h), [3H]4-DAMP, CHO cells; conditions: read-out: M3 [%]
T3 construct: expressed in transfected cells; host or cells: CHO cells
In short: as §2

dopaminergic D3 receptor = dopaminergic D3 receptor (Homo sapiens, UniProt P35462); test: Cellular functional assay, dopaminergic D3 receptor (agonism/antagonism); type: cell-based; conditions: for inhibition at 1 µM: CHO, read-out: D3-antag. [%]; for activation at 1 µM: agonist effect, percent of control specific agonist response (300 nM dopamine for control), 1×10^−6 M, D3 (h), CHO cells, read-out: D3-ag [%]
Method: (§3) The compounds were tested at the concentration of 1×10^−6M.
(§4) In the Tables ag refers to agonism, and antag to antagonism).

adrenergic α2C receptor = target: T4, adrenergic α2C receptor (Homo sapiens, UniProt P18825); test: Binding assay α2C (h), [3H]RX 821002, CHO cells; set-up: expressed in transfected cells; host or cells: CHO cells; conditions: read-out: α2C [%]
T4 sequence (P18825 1-462): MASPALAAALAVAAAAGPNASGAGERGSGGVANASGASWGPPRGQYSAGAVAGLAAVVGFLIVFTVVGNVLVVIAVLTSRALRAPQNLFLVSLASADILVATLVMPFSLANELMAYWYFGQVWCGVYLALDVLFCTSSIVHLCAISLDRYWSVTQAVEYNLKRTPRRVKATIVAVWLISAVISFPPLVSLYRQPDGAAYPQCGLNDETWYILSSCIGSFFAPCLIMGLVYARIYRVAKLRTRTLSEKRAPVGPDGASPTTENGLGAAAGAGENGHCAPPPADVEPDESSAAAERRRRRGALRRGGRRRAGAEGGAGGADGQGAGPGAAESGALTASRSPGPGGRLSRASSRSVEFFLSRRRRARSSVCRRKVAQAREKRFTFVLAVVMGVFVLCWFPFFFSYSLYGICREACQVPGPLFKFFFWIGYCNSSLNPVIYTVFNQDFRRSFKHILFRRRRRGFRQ
In short: as §2

[3] = target: T5, serotoninergic 5-HT7 receptor (Homo sapiens, UniProt P34969); test: Cellular functional assay, serotoninergic 5-HT7 receptor (agonism/antagonism); type: cell-based; conditions: for activation at 1 µM: agonist effect, percent of control specific agonist response, compounds tested at 1×10^−6M, read-out: 5-HT7-ag [%]; for inhibition at 1 µM: read-out: 5-HT7-antag. [%]
Method: as §3, §4

[4] = target: T1, serotoninergic 5-HT2A receptor; test: Binding assay 5-HT2A (h), [3H]ketanserin, HEK-293 cells; set-up: expressed in transfected cells; host or cells: HEK-293 cells; conditions: read-out: 5-HT2A
In short: as §2

sigma σ receptor = test: Binding assay σ (non-selective), [3H]DTG, rat cerebral cortex; conditions: percent inhibition of control specific binding; compounds tested at 1×10^−6 M
In short: as §2

[5] = target: T5, serotoninergic 5-HT7 receptor; test: Binding assay 5-HT7 (h), [3H]LSD, CHO cells; set-up: expressed in transfected cells; host or cells: CHO cells; conditions: read-out: 5-HT7
In short: as §2

dopaminergic D2 receptor [6] = target: T2, dopaminergic D2 receptor; test: Cellular functional assay, dopaminergic D2 receptor (agonism/antagonism); type: cell-based; conditions: HEK293; for activation at 1 µM: agonist effect, percent of control specific agonist response (3 μM dopamine for control), 1×10^−6 M, D2S (h), HEK-293 cells, read-out: D2-ag [%]; for inhibition at 1 µM: read-out: D2-antag. [%]
Method: as §3, §4
Target sequence in this assay (P14416 whole entry): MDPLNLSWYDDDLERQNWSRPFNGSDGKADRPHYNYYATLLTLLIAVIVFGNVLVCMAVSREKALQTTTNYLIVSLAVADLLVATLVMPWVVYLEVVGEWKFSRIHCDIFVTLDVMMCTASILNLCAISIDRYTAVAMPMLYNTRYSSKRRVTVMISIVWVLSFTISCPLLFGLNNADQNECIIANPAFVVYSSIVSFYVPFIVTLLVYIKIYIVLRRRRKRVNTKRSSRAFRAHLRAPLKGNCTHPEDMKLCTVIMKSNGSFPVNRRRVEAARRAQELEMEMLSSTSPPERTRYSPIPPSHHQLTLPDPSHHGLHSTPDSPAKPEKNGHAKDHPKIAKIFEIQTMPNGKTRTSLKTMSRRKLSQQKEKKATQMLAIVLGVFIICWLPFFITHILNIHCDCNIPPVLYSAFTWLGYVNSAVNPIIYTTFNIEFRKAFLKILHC

adrenergic α1A receptor = target: T6, adrenergic α1A receptor (Homo sapiens, UniProt P35348); test: Cellular functional assay, adrenergic α1A receptor (agonism/antagonism); type: cell-based; conditions: for activation at 1 µM: agonist effect, percent of control specific agonist response, compounds tested at 1×10^−6M, read-out: α1A -ag [%]; for inhibition at 1 µM: read-out: α1A -antag. [%]
T6 sequence (P35348 1-466): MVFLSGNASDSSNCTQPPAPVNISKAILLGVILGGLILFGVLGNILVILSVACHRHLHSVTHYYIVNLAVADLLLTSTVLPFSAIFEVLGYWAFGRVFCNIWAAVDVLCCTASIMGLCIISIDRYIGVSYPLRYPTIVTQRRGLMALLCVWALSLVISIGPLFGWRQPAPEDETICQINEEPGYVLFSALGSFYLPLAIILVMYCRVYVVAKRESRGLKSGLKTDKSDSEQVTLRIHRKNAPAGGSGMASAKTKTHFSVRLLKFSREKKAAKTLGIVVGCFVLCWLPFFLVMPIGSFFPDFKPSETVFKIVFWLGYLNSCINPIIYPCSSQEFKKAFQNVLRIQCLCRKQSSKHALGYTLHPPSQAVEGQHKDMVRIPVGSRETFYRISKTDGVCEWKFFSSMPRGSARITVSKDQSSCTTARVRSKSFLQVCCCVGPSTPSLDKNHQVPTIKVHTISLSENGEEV
In short: as §1

adrenergic α1 receptor = test: Binding assay α1 (non-selective), [3H]prazosin, rat cerebral cortex; conditions: percent inhibition of control specific binding; compounds tested at 1×10^−6 M
In short: as §2

[7] = target: histaminergic H1 receptor (Homo sapiens, UniProt P35367); test: Binding assay H1 (h), [3H]pyrilamine, HEK-293 cells; set-up: expressed in transfected cells; host or cells: HEK-293 cells; conditions: read-out: H1 [%]
In short: as §2

[8] = target: T7, serotonine transporter (SERT) receptor (Homo sapiens, UniProt P31645); test: Binding assay SERT (h), [3H]imipramine, CHO cells; conditions: read-out: SERT [%]
T7 construct: expressed in transfected cells; host or cells: CHO cells
In short: as §2

T3 sequence (P20309 whole entry): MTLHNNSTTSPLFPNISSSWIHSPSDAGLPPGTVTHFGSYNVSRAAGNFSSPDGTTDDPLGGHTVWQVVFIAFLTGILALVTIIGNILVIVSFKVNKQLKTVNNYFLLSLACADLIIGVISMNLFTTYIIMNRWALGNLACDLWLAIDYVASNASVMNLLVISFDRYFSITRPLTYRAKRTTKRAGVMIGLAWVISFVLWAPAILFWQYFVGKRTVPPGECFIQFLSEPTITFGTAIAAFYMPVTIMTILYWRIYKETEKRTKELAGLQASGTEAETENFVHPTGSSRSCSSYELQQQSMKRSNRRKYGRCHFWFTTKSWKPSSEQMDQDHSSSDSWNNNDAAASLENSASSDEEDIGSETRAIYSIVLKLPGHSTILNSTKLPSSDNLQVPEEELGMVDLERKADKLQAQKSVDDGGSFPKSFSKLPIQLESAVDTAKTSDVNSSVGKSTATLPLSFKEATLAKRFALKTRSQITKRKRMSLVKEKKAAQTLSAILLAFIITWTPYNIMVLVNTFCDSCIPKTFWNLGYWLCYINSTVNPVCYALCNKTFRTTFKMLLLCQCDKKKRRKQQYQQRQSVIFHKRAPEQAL
T5 sequence (P34969 whole entry): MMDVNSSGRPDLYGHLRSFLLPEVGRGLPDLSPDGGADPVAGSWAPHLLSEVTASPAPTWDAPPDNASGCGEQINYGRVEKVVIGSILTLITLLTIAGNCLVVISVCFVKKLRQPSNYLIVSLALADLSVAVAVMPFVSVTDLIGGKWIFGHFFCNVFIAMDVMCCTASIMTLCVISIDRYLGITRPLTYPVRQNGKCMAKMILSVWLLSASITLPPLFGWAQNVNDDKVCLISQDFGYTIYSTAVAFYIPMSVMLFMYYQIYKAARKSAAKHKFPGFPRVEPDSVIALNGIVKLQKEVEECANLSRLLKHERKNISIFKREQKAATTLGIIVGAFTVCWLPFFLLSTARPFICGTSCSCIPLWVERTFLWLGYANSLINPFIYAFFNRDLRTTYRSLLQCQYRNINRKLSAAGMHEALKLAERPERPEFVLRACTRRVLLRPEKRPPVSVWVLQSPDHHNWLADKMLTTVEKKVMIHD
Chain of dopaminergic D3 receptor (P35462 whole entry): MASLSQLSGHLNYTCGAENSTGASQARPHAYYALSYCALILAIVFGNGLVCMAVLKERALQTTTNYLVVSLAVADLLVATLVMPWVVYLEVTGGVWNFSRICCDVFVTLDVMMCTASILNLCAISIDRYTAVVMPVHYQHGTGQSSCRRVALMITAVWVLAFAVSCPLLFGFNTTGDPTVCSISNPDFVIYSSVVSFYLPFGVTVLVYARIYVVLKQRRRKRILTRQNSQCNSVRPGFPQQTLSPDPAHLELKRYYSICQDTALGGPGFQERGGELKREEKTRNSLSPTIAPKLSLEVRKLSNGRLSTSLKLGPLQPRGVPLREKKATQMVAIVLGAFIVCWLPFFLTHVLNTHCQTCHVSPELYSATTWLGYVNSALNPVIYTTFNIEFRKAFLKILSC
T7 sequence (P31645 whole entry): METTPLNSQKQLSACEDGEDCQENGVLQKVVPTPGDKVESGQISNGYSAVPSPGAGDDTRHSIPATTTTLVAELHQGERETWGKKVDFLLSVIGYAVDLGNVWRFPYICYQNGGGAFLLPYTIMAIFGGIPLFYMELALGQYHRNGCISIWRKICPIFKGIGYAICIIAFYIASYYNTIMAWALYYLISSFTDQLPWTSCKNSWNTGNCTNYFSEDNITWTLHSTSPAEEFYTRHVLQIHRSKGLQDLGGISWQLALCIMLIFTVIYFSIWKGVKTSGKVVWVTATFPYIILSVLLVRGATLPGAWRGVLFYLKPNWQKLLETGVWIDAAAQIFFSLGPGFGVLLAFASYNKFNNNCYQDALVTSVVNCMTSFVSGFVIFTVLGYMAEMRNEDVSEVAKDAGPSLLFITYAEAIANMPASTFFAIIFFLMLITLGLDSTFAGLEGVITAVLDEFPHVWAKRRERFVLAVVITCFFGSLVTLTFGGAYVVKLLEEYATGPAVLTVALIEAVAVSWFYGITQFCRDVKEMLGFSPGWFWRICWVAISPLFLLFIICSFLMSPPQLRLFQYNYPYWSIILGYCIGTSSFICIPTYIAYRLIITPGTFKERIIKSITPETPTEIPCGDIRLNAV
Chain of histaminergic H1 receptor (P35367 whole entry): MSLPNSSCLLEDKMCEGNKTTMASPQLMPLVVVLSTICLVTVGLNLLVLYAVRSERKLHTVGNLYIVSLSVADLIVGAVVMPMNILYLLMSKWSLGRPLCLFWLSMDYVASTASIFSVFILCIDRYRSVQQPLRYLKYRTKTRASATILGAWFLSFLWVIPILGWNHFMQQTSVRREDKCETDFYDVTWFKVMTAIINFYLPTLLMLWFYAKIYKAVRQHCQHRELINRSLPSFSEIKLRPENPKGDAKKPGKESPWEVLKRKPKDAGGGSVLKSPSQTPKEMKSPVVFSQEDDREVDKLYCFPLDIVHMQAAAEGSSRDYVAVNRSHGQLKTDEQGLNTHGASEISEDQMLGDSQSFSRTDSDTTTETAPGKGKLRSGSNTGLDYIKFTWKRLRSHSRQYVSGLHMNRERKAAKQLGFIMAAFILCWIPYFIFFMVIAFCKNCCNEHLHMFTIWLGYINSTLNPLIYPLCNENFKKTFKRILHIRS
T1 sequence (P28223 whole entry): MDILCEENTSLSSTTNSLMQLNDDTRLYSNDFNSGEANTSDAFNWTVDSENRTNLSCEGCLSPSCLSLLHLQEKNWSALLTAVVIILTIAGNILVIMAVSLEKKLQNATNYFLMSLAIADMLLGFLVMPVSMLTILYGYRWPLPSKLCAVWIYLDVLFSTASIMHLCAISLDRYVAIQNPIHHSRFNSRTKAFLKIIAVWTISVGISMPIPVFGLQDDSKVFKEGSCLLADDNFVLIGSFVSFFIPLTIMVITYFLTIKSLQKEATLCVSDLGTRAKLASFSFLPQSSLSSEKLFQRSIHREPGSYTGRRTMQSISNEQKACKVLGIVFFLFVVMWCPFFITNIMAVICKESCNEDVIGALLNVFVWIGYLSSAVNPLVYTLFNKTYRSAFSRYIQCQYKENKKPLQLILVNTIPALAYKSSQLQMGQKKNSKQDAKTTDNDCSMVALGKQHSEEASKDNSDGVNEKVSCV

Row | Structure (SMILES) | activation at 1 µM [1] [%] | inhibition at 1 µM [1] [%] | inhibition at 1 µM (dopaminergic D2 receptor [2]) [%] | inhibition at 1 µM (muscarinic M3 receptor) [%] | inhibition at 1 µM (dopaminergic D3 receptor) [%] | activation at 1 µM (dopaminergic D3 receptor) [%] | inhibition at 1 µM (adrenergic α2C receptor) [%] | activation at 1 µM [3] [%] | inhibition at 1 µM [3] [%] | inhibition at 1 µM [4] [%] | σ [%] (sigma σ receptor) | inhibition at 1 µM [5] [%] | activation at 1 µM (dopaminergic D2 receptor [6]) [%] | inhibition at 1 µM (dopaminergic D2 receptor [6]) [%] | activation at 1 µM (adrenergic α1A receptor) [%] | inhibition at 1 µM (adrenergic α1A receptor) [%] | α1 [%] (adrenergic α1 receptor) | inhibition at 1 µM [7] [%] | inhibition at 1 µM [8] [%]
1 | Cc1cccc(S(=O)(=O)NCCCN2CCN(c3nsc4ccccc34)CC2)c1 [Compound 7, N-(3-(4-(1,2-Benzothiazol-3-yl)piperazin-1-yl)propyl)-3-methylbenzenesulphonamide] | 0 | 100 | 95 | 13 | 66 | -21 | 96 | -1 | 98 | 100 | 61 | 97 | 0 | 91 | 0 | 100 | 98 | 93 | 88
2 | O=c1[nH]c2ccc(S(=O)(=O)NCCCN3CCN(c4nsc5ccccc45)CC3)cc2o1 [Compound 8, N-(3-(4-(1,2-Benzothiazol-3-yl)piperazin-1-yl)propyl)-2-oxo-3H-1,3-benzoxazole-6-sulphonamide] | -2 | 99 | 98 | -11 | 73 | -24 | 93 | -1 | 82 | 100 | 17 | 97 | 7 | 85 | 0 | 100 | 94 | 97 | 63
3 | O=S(=O)(NCCCCN1CCN(c2noc3ccccc23)CC1)c1ccc2ccccc2c1 [Compound 14, N-(4-(4-(1,2-Benzoxazol-3-yl)piperazin-1-yl)butyl)naphthalene-2-sulphonamide] | 1 | 100 | 99 | -6 | 92 | -15 | 100 | -1 | 85 | 100 | 40 | 99 | 4 | 98 | 0 | 100 | 102 | 88 | 3
